# Results from patent publication US5849801A, “4-amino-5-oxy-2,6,6-trimethyl-2-cycloheptene compounds” (Tokyo Tanabe Company Limited, priority 1995, dated 1998).
# Counter-ions that a name gives are not always drawn.
# How the values were obtained:
# [1] = system: histamine-induced guinea pig bronchoconstriction; experiment: Effect on histamine-induced guinea pig bronchoconstriction models; type: in vivo, male Hartley guinea pigs; details: inhalation for 30 seconds, hydrochloride, histamine 3 μg/kg i.v. after 2 minutes
# Method: After urethane anesthetization of male Hartley guinea pigs (body weight: 350~450 g, 5 per group, Nihon Crea Co.), a small cannula was inserted into trachea. Next, gallamine triethiodide (1 mg/kg) was intravenously administered, and the tracheal cannula was connected to a constant volume respirator. The artificial respiration was conducted with an air volume per breath of 7~10 ml, a breath frequency of 60/min and a lung application pressure of 10 cm water. The volume of air overflowing from the legs on the cannula side was recorded on a polygraph (RM6100: product of Nihon Koden Co.) with a model 7020 bronchospasm transducer (product of Ugo Basile). Hydrochloride of the test compounds were dissolved in physiological saline, and inhalation was performed with reference to the method of Minami et al. […] The inhalation load apparatus was prepared by directly incorporating an ultrasonic nebulizer into an artificial respiration circuit (Omron ultrasonic aspirator NE-U11B, product of […] Electric Co.). The test compound (mg/0.5 ml) was administered by inhalation for 30 seconds, and after 2 minutes histamine (3 μg/kg) was intravenously administered and the air overflow volume was measured. The bronchoconstriction rate was calculated as a percentage with 100 being the height of contraction when the airway was completely constricted. The inhibition rate was calculated by dividing the contraction rate of the test compound group by the contraction rate of the control group.
# [2] = system: platelet aggregation induced by arachidonic acid; experiment: Inhibiting effect on platelet aggregation (in vitro), arachidonic acid as aggregating agent; type: cell-based, Japanese white male house rabbits; details: Oryctolagus cuniculus; arachidonic acid 68.6 μg/ml, 37° C., platelet suspension
# Method: (§1) Platelet rich plasma was prepared from Japanese white male house rabbits (body weight: 2.5~3.0 kg) following the method of Suzuki et al. (Suzuki, K. et al., The Clinical Report, Vol. 21, No. 13, p. 5263, 1987). The resulting platelet rich plasma solution was appropriately diluted with a Tris-Tyrode buffer solution (pH 7.4) to prepare a 4×10^5 platelet/μl platelet suspension to be used for the test. The platelet aggregation was measured using a platelet aggregometer (NBS Hematoracer 601, product of Nikoh Bioscience Co.). Specifically, 250 μl of the platelet suspension, 5 μl of a 96 mM calcium chloride solution and 5 μl of the test compound solution dissolved in methanol were added to a cuvette, and after incubating for one minute at 37° C., 20 μl of an aggregating agent was added and the maximum degree of aggregation occurring was determined. The aggregating agents used were platelet activating factor (PAF) (2.5 ng/ml) and arachidonic acid (68.6 μg/ml). The 50% inhibition concentration (IC50) was calculated from the results of measurement with various concentrations of each test compound.
# [3] = system: rat peripheral arterial occlusion models; experiment: Effect on rat peripheral arterial occlusion models (5% lactic acid induced); type: in vivo, SD rats; details: i.v., lower leg lesions at 14 days
# Method: Models were prepared following the method of Iwamoto et al. (Iwamoto, M. et al., Japanese Pharmacology & Therapeutics, Vol. 14, Suppl. 5, p. 41, 1986). Upon minimal dissection of the femoral regions of SD rats (6 per group) with a body weight of 250~350 g under Nembutal anesthesia, 0.1 ml of 5% lactic acid was administered intraarterially. The rats were raised for 14 days under normal conditions, and observed for lesions of the lower legs. The grading for the lesions was: "1" for nigrities only at the nail tips, "2" for nigrities up to the digits, "3" for necrosis of the digits, and "4" deciduation of the digits. Each of the digits of the lower legs on the side where lactic acid had been administered were graded, and the overall grade was determined as the index of lesions. The disorder inhibition rate was determined by dividing the index of lesions in the drug-administered group by the index of lesions of the control group. The drugs were dissolved in physiological saline or dimethylsulfoxide, and injected through the caudal vein 5 minutes prior to injection of the 5% lactic acid.
# [4] = system: calcium contraction of the thoracic aorta; experiment: Effect on calcium contraction (in vitro), thoracic aorta specimens; design: species or system Male SD rats; details: Rattus norvegicus; 1×10^-7 M in dimethylsulfoxide; 0.3 mM calcium chloride, 80 mM KCl buffer
# Method: This was investigated according to the method of Ishibashi, et al. (Ishibashi, A. et al., Folia Pharmacologica Japonica, Vol. 82, p. 361, 1983). Male SD rats of body weight approximately 300 g were used to prepare thoracic aorta extract specimens, which were suspended and immobilized in a organ bath containing 10 ml of Krebs-Henseleit buffer solution at 37° C. through which a mixed gas of oxygen (95%) and carbon dioxide (5%) had been passed. After equilibrating the specimens, they were equilibrated in a buffer solution without calcium chloride and then in an isotonic calcium-free 80 mM potassium chloride buffer solution replaced with potassium ions, and a resting tension of 0.2 g was applied. Contraction was induced by addition of 0.3 mM calcium chloride. The test compounds were added 10 minutes prior to addition of the calcium solution. The percent inhibition of the test compounds were calculated using the first contraction as the control (100% contraction). The test compounds were used for the test as solutions in dimethylsulfoxide at a 1×10^-7 M concentration.
# [5] = system: blood pressure of anesthetized rats; experiment: Effect on blood pressure of anesthetized rats; type: in vivo, Male SD rats; details: Rattus norvegicus, intravenous, diastolic, urethane anesthesia, read-out: Reduction of blood pressure (%)
# Method: Male SD rats (body weight: 250~350 g, product of Nihon Crea Co.) were placed under urethane anesthesia and then a sphygmomanometric pressure transducer was inserted into the left cervical artery and recording was made on a polygraph (RM6100, product of Nihon Koden Co.) using a strain pressure […], product of Nihon Koden Co.). The test compounds were dissolved in physiological saline and administered intravenously. The change in blood pressure was indicated as the reduction rate from the initial value of diastolic blood pressure just prior to administration of the test compound.
# [6] = system: antigen-induced guinea pig bronchoconstriction; experiment: Effect on antigen-induced guinea pig bronchoconstriction; type: in vivo, Male Hartley guinea pigs; details: inhaled one minute before i.v. DNP-bovine serum albumin; observed 15 minutes; passively sensitized
# Method: Male Hartley guinea pigs (body weight: 300~450 g, Nihon Crea Co.) were intraperitonealy administered anti-DNP-Ascarls serum (1024-fold antibody titer) at 0.5 ml/kg. After 24 hours, under urethane anesthesia there were inserted a cannula into the trachea, a sphygmomanometric cannula into the left cervical artery and a drug injection cannula into the right jugular vein, and gallamine triethiodide (1.0 mg/0.5 ml/kg) was intravenously administered and connected to an artificial respirator (product of Ugo Basile). For the test, diphenhydramine (60 mg/ml/kg) was intraperitoneally administered, the compound of Example 16 was inhaled as the test compound after 14 minutes, and following intravenous administration of DNP-bovine serum albumin (1.0 mg protein/0.5 ml/kg) one minute after administration of the test compound, the degree of bronchoconstriction was observed over a period of 15 minutes. The bronchoconstriction rate was given as a percentage of the maximum air over flow volume obtained by clamping off the trachea. The test compounds were inhaled by nebulizing for 30 seconds with an ultrasonic nebulizer.
# [7] = system: platelet aggregation induced by platelet activating factor (PAF); experiment: Inhibiting effect on platelet aggregation (in vitro), platelet activating factor (PAF) as aggregating agent; type: cell-based, Japanese white male house rabbits; details: Oryctolagus cuniculus; PAF 2.5 ng/ml, 37° C., platelet suspension
# Method: as §1
smiles,measurement,setting,value
"CC1=CC(N2CCCCC2)C(O)C(C)(C)CC1=O (single isomer, unassigned; (-)) [(-) Compound of Example 35, (-)-5-hydroxy-4-piperidino-2,6,6-trinethyl-2-cyclohepten-1-one]",Brochoconstriction inhibition rate,[1]; 10.0 mg/0.5 ml,64%
"CC1=CC(NCc2ccccc2)C(O)C(C)(C)CC1=O (stereo not drawn) [Example 1, 4-benzylamino-5-hydroxy-2,6,6-trimethyl-2-cyclohepten-1-one]",IC50,[2],100 µM
same,Inhibition rate,"[3]; 5 mg/kg, in physiological saline",42%
same,inhibition at 0.1 µM,[4],48%
"CC1=CC(NCCc2ccccc2)C(O)C(C)(C)CC1=O (stereo not drawn) [Example 2, 4-(2-phenylethylamino)-5-hydroxy-2,6,6-trimethyl-2-cyclohepten-1-one]",inhibition in vivo at 1 mg/kg,[5],16%
same,inhibition in vivo at 3 mg/kg,[5],31%
"CCOC(=O)c1ccc(CNC2C=C(C)C(=O)CC(C)(C)C2O)cc1 (stereo not drawn) [Example 4, 5-hydroxy-4-(4-ethoxycarbonylbenzylamino)-2,6,6-trimethyl-2-cyclohepten-1-one]",inhibition at 0.1 µM,[4],33%
"CC1=CC(Nc2ccccc2)C(O)C(C)(C)CC1=O (stereo not drawn) [Example 5, 5-hydroxy-4-phenylamino-2,6,6-trimethyl-2-cyclohepten-1-one]",Inhibition rate,"[3]; 5 mg/kg, in DMSO",35%
"CC1=CC(NC2CCCC2)C(O)C(C)(C)CC1=O (stereo not drawn) [Example 7, 4-cyclopentylamino-5-hydroxy-2,6,6-trimethyl-2-cyclohepten-1-one hydrochloride]",inhibition in vivo at 10 mg/kg,[5],34%
"CC1=CC(NC2CCCCC2)C(O)C(C)(C)CC1=O (stereo not drawn) [Example 8, 4-cyclohexylamino-5-hydroxy-2,6,6-trimethy-2-cyclohepten-1-one hydrochloride]",inhibition in vivo at 10 mg/kg,[5],45%
"CCCCNC1C=C(C)C(=O)CC(C)(C)C1O.Cl (stereo not drawn) [Example 9, 4-(1-butylamino)-5-hydroxy-2,6,6-trimethyl-2-cyclohepten-1-one hydrochloride]",Brochoconstriction inhibition rate,[1]; 1.0 mg/0.5 ml,57%
same,inhibition in vivo at 1 mg/kg,[5],14%
same,inhibition in vivo at 3 mg/kg,[5],32%
same,inhibition in vivo at 10 mg/kg,[5],51%
"COCCNC1C=C(C)C(=O)CC(C)(C)C1O (stereo not drawn) [Example 10, 5-hydroxy-4-(2-methoxyethylamino)-2,6,6-trimethyl-2-cyclohepten-1-one]",inhibition at 0.1 µM,[4],32%
"CC1=CC(NC(C)(C)C)C(O)C(C)(C)CC1=O (stereo not drawn) [Example 12, 5-hydroxy-4-(tert-butylamino)-2,6,6-trimethyl-2-cyclohepten-1-one]",inhibition in vivo at 10 mg/kg,[5],33%
"CCN(CC)C1C=C(C)C(=O)CC(C)(C)C1O (stereo not drawn) [Example 13, 4-diethylamino-5-hydroxy-2,6,6-trimethyl-2-cyclohepten-1-one]",inhibition in vivo at 10 mg/kg,[5],28%
"CC1=CC(N2CCCC2)C(O)C(C)(C)CC1=O.Cl (stereo not drawn) [Example 15, 5-hydroxy-4-pyrrolidino-2,6,6-trimethyl-2-cyclohepten-1-one hydrochloride]",Brochoconstriction inhibition rate,[1]; 3.0 mg/0.5 ml,73%
same,inhibition in vivo at 10 mg/kg,[5],26%
"CC1=CC(N2CCCCC2)C(O)C(C)(C)CC1=O (stereo not drawn) [Example 16, 5-hydroxy-4-piperidino-2,6,6-trinethyl-2-cyclohepten-1-one hydrochloride]",Brochoconstriction inhibition rate,[1]; 3.0 mg/0.5 ml,32%
same,Brochoconstriction inhibition rate,[1]; 10.0 mg/0.5 ml,46%
same,IC50,[2],100 µM
same,airway contraction / bronchoconstriction (FIG. 1),[6],inhibited airway contract ion
same,inhibition in vivo at 1 mg/kg,[5],6%
same,inhibition in vivo at 3 mg/kg,[5],16%
same,inhibition in vivo at 10 mg/kg,[5],40%
same,Inhibition rate,"[3]; 3 mg/kg, solvent physiological saline (printed once, above)",65%
same,Inhibition rate,"[3]; 30 mg/kg, solvent physiological saline (printed once, above)",78%
same,inhibition at 0.1 µM,[4],24%
"CC1=CC(N2CCCCCC2)C(O)C(C)(C)CC1=O (stereo not drawn) [Example 17, 4-hexamethyleneimino-5-hydroxy-2,6,6-trimethyl-2-cyclohepten-1-one]",inhibition in vivo at 10 mg/kg,[5],42%
"CC1=CC(N2CCOCC2)C(O)C(C)(C)CC1=O (stereo not drawn) [Example 18, 5-hydroxy-4-morpholino-2,6,6-trimethyl-2-cyclohepten-1-one]",inhibition at 0.1 µM,[4],39%
same,IC50,[7],98 µM
"CC1=CC(N2CCN(C)CC2)C(O)C(C)(C)CC1=O (stereo not drawn) [Example 22, 5-hydroxy-4-(4-methylpiperazino)-2,6,6-trimethyl-2-cyclohepten-1-one]",Brochoconstriction inhibition rate,[1]; 3.0 mg/0.5 ml,17%
same,inhibition at 0.1 µM,[4],48%
"CC1=CC(N2CCC(O)CC2)C(O)C(C)(C)CC1=O (stereo not drawn) [Example 23, 4-(4-hydroxypiperidino)-5-hydroxy-2,6,6-trimethyl-2-cyclohepten-1-one]",Brochoconstriction inhibition rate,[1]; 3.0 mg/0.5 ml,23%
"CC1=CC(N2CCC3(CC2)OCCO3)C(O)C(C)(C)CC1=O (stereo not drawn) [Example 26, 4-(1,4-dioxa-8-aza-spiro[5.4]decan-8-yl)-5-hydroxy-2,6,6-trimethyl-2-cyclohepten-1-one]",Brochoconstriction inhibition rate,[1]; 3.0 mg/0.5 ml,53%
same,IC50,[2],36 µM
"CC1=CC(N(C)Cc2ccccc2)C(O)C(C)(C)CC1=O (stereo not drawn) [Example 28, 5-hydroxy-4-(N-methylbenzylamino)-2,6,6-trimethyl-2-cyclohepten-1-one]",IC50,[2],11 µM
"CC1=CC(N2CCCCC2)C(O)C(C)(C)CC1=NO (stereo not drawn) [Example 30, 5-hydroxy-4-piperidino-2,6,6-trimethyl-2-cyclohepten-1-one oxime]",Brochoconstriction inhibition rate,[1]; 3.0 mg/0.5 ml,42%
